Test results published in patent publication US20040106635A1, “Spiroisoquinoline compound, a method for preparing the same and an intermediate thereof” (priority 2001, published 2004).

Assays:
[1] = target: SK channel (specific binding of 125I-apamine to the membrane); assay: Assay of 125I-apamine-binding inhibition (competitive binding to colon membrane fraction); conditions: guinea pig colon membrane 10 μg/mL, 125I-apamin 10 pM, 4° C., 60 minutes; read-out: 125I-apamine-binding inhibitory activity (IC50; μM)
Protocol: (Assay of ^125I-Apamine-Binding Inhibition)
Male Hartley guinea pigs (Age: 4 weeks or more)
Each test drug was dissolved in a buffer (5 mM Tris-HCl, 5.4 mM KC1, 0.1% bovine serum albumin (BSA), pH 7.4; This buffer is hereinafter referred as buffer (3)). Hardly water-soluble test drugs were dissolved in dimethylsulfoxide followed by being diluted with buffer (3).
The experiments were carried out according to the method described by Hugues et al (Life Sciences 31, 437-443, 1982) and Catterall et al (Journal of Biochemistry 254, 11379-11387, 1979).
The colon was isolated from guinea pigs and mucosal cells were removed therefrom. The colon was homogenized together with a buffer solution (1)(40 mM Tris-HCl, 8% sucrose, pH 7.4) and the homogenate was centrifuged at 130,000 g for 60 minutes. The pellet was suspended in the buffer solution (1) and the suspension was layered on top of a discontinuous sucrose gradient composed of 33% sucrose and 40% sucrose. After centrifugation at 160,000 g for 90 minutes, the 8/33%-layer was collected and suspended in a buffer solution (2)(5 mM Tris-HCl, pH 7.4). The suspension was further centrifuged at 160,000 g for 60 minutes. The resultant pellet was suspended in buffer (3) at a final concentration of 500 μg of membrane protein per mL and used for binding assay (If necessary, this suspension was frozen and stored in a liquid nitrogen).
The membrane (10 μg/mL), ^125I-apamin (10 pM) and a test drug solution were added to the buffer (3) and the mixture was incubated at 4° C. for 60 minutes. After incubation, the mixture was filtered through cell-harvester and the radioactivity of ^125I-apamin retained by the filter was counted with a gamma-counter. The inhibitory activity (IC50) of the test drug on specific binding of ^125I-apamine to the membrane was calculated. The binding level of ^125I-apamine in the presence of large excess(100 nM) of apamine was defined as non-specific binding of ^125I-apamin.

guinea pig = assay: Evaluation of evacuation-promoting activity (fecal pellets after clonidine); assay type: in vivo; conditions: 15 min after clonidine 30 μg/kg i.p., minimum dose with more fecal pellets than control at one hour
Protocol: (Evaluation of Evacuation-Promoting Activity)
Male Hartley guinea pigs (Age: 4 to 5 weeks; n=6 to 10/group)
Each test drug was dissolved in distilled water. Hardly water-soluble test drugs were suspended in a 0.5% carboxymethyl cellulose solution. Dose of the test drug solution was 5 mL/kg.
Guinea pigs (2 animals/cage) were encaged and acclimatized for a few days prior to the examinations. Fifteen minutes after the administration of clonidine (30 μg/kg, i.p.), each test compound solution (5 mL/kg) was administered intraperitoneally or orally to the animals. One hour after the administration of the test compound, number of evacuated fecal pellets in each cage was measured and recorded. Effective dose of the test compound was determined as a minimum dose in which the number of evacuated fecal pellets was grater than that in control group (group of guinea pigs to which clonidine and vehicle of the test compound were administered d).

[2] = target: acetylcholinesterase (AChE) (Homo sapiens, UniProt P22303); assay: Inhibitory activity on acetylcholinesterase (AChE), Ellman method; assay type: biochemical; conditions: 25° C., pH 7.4, in the presence of 1% BSA, absorbance at 412 nm
Protocol: (Inhibitory Activity on acetylcholinesterase (AChE))
Each test drug was dissolved in distilled water containing 0.1% BSA (pH 7.4). Hardly water-soluble test drugs were dissolved in dimethylsulfoxide followed by being diluted with distilled water containing 0.1% BSA (pH 7.4).
Measurements of AChE activity were carried out according to the method described by Ellman et al (Biochem Pharmacol 7, 88-95, 1961). A solution of 12 mM 5,5,-dithiobis-(2-nitrobenzoic acid) (50 μL; final concentration: 0.3 mM), a solution of AChE (2-4 U/mL; 50 μL) and a test drug solution (50 μL) were added, in this order, to 110 mM phosphate buffer (1.8 mL; final concentration: 100 mM; pH 7.4) and the mixture was incubated for a predetermined period (3 to 60 minutes) at 25° C. After incubation, a solution of 20 mM acetylthiocholin iodide (50 μL; final concentration: 0.5 mM) was added to the mixture. Immediately after stirring the mixture, absorbance at 412 nm of the reaction mixture was measured. In terms of change in the absorbance per unit time (z,900 E/min), the AChE-inhibitory activity of the test drug (IC50) was calculated. Concomitantly, the measurements of the present experiment were carried out in the presence of 1% BSA.

Sequence of acetylcholinesterase (AChE) (P22303 32-614, species assumed): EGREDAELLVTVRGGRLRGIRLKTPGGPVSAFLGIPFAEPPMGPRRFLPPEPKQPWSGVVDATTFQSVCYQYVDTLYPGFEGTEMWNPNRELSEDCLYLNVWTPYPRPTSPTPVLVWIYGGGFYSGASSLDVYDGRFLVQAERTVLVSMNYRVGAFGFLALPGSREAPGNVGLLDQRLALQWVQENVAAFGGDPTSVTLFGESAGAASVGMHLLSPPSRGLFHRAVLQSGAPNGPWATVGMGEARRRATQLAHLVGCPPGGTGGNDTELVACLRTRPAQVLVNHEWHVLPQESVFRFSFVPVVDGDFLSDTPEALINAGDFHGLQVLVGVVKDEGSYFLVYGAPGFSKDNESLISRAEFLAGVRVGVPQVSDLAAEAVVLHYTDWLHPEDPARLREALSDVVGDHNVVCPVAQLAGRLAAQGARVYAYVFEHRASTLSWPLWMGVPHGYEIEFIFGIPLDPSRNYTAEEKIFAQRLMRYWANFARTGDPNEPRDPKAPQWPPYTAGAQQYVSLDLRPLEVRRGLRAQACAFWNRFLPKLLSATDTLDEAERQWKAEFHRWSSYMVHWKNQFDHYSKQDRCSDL

Row | SMILES | IC50 [1] [µM] | Evacuation-promoting activity in guine pig (Effective dose: mg/kg p.o.) (guinea pig) [mg/kg] | further results
1 | COc1cc2c(cc1OC)C1(CCC(C(=O)N3CCN(c4ncnc5c4cnn5Cc4ccccn4)CC3)CC1)N(CCCN)CC2 (stereo not drawn) [282 (2)] | 0.02 |  | 
2 | CCC(=O)OCOC(=O)N(C)CCC(=O)N1CCc2cc(OC)c(OC)cc2[C@]12CC[C@@H](C(=O)N1CCN(c3ncnc4c3cnn4Cc3ccncc3)CC1)C[C@@H]2C1c2cc(OC)c(OC)cc2CCN1CC (relative stereo) [313 (1), (1R*,2R*(S*),4R*)-2′-[3-[N-(propionyloxymethyloxycarbonyl)-N-methylamino]propionyl]-3′,4′-dihydro-6′,7′-dimethoxy-2-(2-ethyl-1,2,3,4-tetrahydro-6,7-dimethoxy-1-isoquinolyl)-4-[4-[1-(4-pyridylmethyl)-1H-pyrazolo[3,4-d]pyrimidin-4-yl]-1-piperazinyl]carbonyl-spiro[cyclohexane-1,1′(2′H)-isoquinoline]] |  | 0.1 | 
3 | CCN1CCc2cc(OC)c(OC)cc2C1C1CC(C(=O)N2CCN(c3ncnc4c3nnn4C)CC2)CCC12c1cc(OC)c(OC)cc1CCN2C(=O)CCNC (stereo not drawn) [Example 241(2)] | 0.01 |  | Evacuation-promoting activity in guinea pig (Effective dose: mg/kg i.p.) (guinea pig): 0.03 mg/kg
4 | CCCn1ncc2c(N3CCN(C(=O)[C@@H]4CC[C@]5(c6cc(OC)c(OC)cc6CCN5C(=O)CCN(C)C(=O)c5ccccc5COC(=O)c5ccccc5)[C@@H](C5c6cc(OC)c(OC)cc6CCN5CC)C4)CC3)ncnc21 (relative stereo) [386 (2), (1R*,2R*(S*),4R*)-2′-[3-[N-(2-benzoyloxymethylbenzoyl)-N-methylamino]-propionyl]-3′,4′-dihydro-6′,7′-dimethoxy-2-(2-ethyl-1,2,3,4-tetrahydro-6,7-dimethoxy-1-isoquinolyl)-4-[4-[1-propyl-1H-pyrazolo[3,4-d]pyrimidin-4-yl]-1-piperazinyl]carbonyl-spiro[cyclohexane-1,1′(2′H)-isoquinoline]] |  | 1 | 
5 | CCCn1ncc2c(N3CCN(C(=O)C4CCC5(c6cc(OC)c(OC)cc6CCN5C(=O)CCNC)C(C5c6cc(OC)c(OC)cc6CCN5CC)C4)CC3)ncnc21 (stereo not drawn) [Example 236(2)] | 0.06 |  | 
6 | CCC(=O)OCOC(=O)N(C)CCC(=O)N1CCc2cc(OC)c(OC)cc2[C@]12CC[C@@H](C(=O)N1CCN(c3ncnc4c3cnn4Cc3ccncc3)CC1)C[C@@H]2C1c2cc(OC)c(OC)cc2CCN1CC (relative stereo) [313 (2), (1R*,2R*(S*),4R*)-2′-[3-[N-(propionyloxymethyloxycarbonyl)-N-methylamino]propionyl]-3′,4′-dihydro-6′,7′-dimethoxy-2-(2-ethyl-1,2,3,4-tetrahydro-6,7-dimethoxy-1-isoquinolyl)-4-[4-[1-(4-pyridylmethyl)-1H-pyrazolo[3,4-d]pyrimidin-4-yl]-1-piperazinyl]carbonyl-spiro[cyclohexane-1,1′(2′H)-isoquinoline]] |  | 0.1 | 
7 | CCN1CCc2cc(OC)c(OC)cc2C1[C@H]1C[C@H](C(=O)N2CCN(c3ncnc4c3nnn4C)CC2)CC[C@]12c1cc(OC)c(OC)cc1CCN2C(=O)CCN(C)C(=O)OCOC(=O)C(C)(C)C (relative stereo) [315 (2), (1R*,2R*(S*),4R*)-2′-[3-[N-(pivaloyloxy-methyloxycarbonyl)-N-methylamino]propionyl]-3′,4′-dihydro-6′,7′-dimethoxy-2-(2-ethyl-1,2,3,4-tetrahydro-6,7-dimethoxy-1-isoquinolyl)-4-[4-[3-methyl-3H-1,2,3-triazolo[4,5-d]pyrimidin-7-yl]-1-piperazinyl]carbonyl-spiro[cyclohexane-1,1′(2′H)-isoquinoline]] |  | 0.3 | 
8 | CNCCCCN1CCc2cc(OC)c(OC)cc2C12CCC(C(=O)N1CCN(c3ncnc4c3cnn4Cc3ccccc3Cl)CC1)CC2 (stereo not drawn) [295 (4), (1α,4β)-2′-[4-(methylamino)butyl]-3′,4′-dihydro-6′,7′-dimethoxy-4-[4-[1-(2-chlorophenylmethyl)-1H-pyrazolo[3,4-d]pyrimidin-4-yl]-1-piperazinyl]carbonyl-spiro[cyclohexane-1,1′(2′H)-isoquinoline]] |  |  | IC50 [2]: 0.02 µM
9 | CCN1CCc2cc(OC)c(OC)cc2[C@@H]1[C@H]1C[C@H](C(=O)N2CCN(c3ncnc4c3cnn4Cc3ccncc3)CC2)CC[C@]12c1cc(OC)c(OC)cc1CCN2C(=O)CCNC (racemic) [Example 165(2), (1R*,2R*(S),4R)-2′-[3-(methylamino)propionyl]-3′,4′-dihydro-6′,7′-dimethoxy-2-(2-ethyl-1,2,3,4-tetrahydro-6,7-dimethoxy-1-isoquinolyl)-4-[4-[1-(4-pyridylmethyl)-1H-pyrazolo[3,4-d]pyrimidin-4-yl]-1-piperazinyl]carbonyl-spiro[cyclohexane-1,1′(2′H)-isoquinoline]] | 0.05 |  | IC50 [2]: 0.002 µM; Evacuation-promoting activity in guinea pig (Effective dose: mg/kg i.p.) (guinea pig): 0.01 mg/kg
